Assay results taken from PubChem BioAssay AID720570 (Broad Institute, 2013).
Several values for one entry are separate records, joined by “and”; a condition that tells them apart may be missing. Equal entries are not always repeated.

tested on: TC71 Ewing sarcoma viability, CellTiter-Glo ATP, 72 h; test: cytotoxicity in EWS/Fli1-dependent TC71 cells – cell-based, luminescence, cherry-picked samples, retest, confirmation (AID 720570)

| SMILES | AC35 |
| --- | --- |
| C[C@H](CO)N1C[C@H](C)[C@H](CN(C)Cc2ccc(C(=O)Nc3ccccc3N)cc2)Oc2c(cccc2N(C)C)C1=O | 17.1 µM |
| C[C@H](O)C#Cc1ccc2c(c1)O[C@@H](CN(C)Cc1ccc(-c3ccccc3)cc1)[C@H](C)CN([C@@H](C)CO)S2(=O)=O | 3.82 µM and 4.62 µM |
| N#CC(=C1C=CC(=NO)C(Cl)=C1)c1ccccc1 | 6.4 µM |
| Cc1ccc(C(C)C)c(OCc2ccc(C(=O)N/N=C/c3ccc(O)cc3O)cc2)c1 | 2.01 µM |
| COC(=O)C[C@H]1CC[C@@H]2[C@H](COc3ccc(NC(=O)Nc4cccc(Cl)c4)cc3C(=O)N2C)O1 | 15 µM |
| CCc1ccc(/C=C2\SC(=S)N(CCCC(=O)NCCCN3CCOCC3)C2=O)cc1 | 22.6 µM |
| C[C@@H]1CN([C@@H](C)CO)C(=O)c2cc(NS(=O)(=O)c3ccccc3)ccc2O[C@@H]1CN(C)Cc1ccc(C(=O)Nc2ccccc2N)cc1 | 10.2 µM |
| C[C@@H]1O[C@@H](O[C@H]2C[C@@H](O)[C@]3(CO)[C@@H]4C(CC[C@]3(O)C2)[C@@]2(O)CC[C@H](C3COC(=O)C3)[C@@]2(C)C[C@H]4O)[C@H](O)[C@H](O)[C@H]1O (some centres undefined) | 6.91 µM |
| Nc1nc(N)c2cc(Sc3ccc4ccccc4c3)ccc2n1 | 1.83 µM |
| COc1ccc(C2=Nn3c([n+](C)c4ccccc43)SC2)cc1 | 19.6 µM |
| C[C@@H]1CCCCO[C@H](CN(C)Cc2ccc(C(=O)Nc3ccccc3N)cc2)[C@@H](C)CN([C@@H](C)CO)C(=O)c2cc(NS(=O)(=O)c3ccc(Cl)cc3)ccc2O1 | 13.6 µM |
| CC12CCC(O)CC1CCC1C2CCC2(C)C(C3=CC(=O)OC3)CCC12O (centres undefined) | 1.17 µM |
| Cc1c(Cl)cccc1NC(=O)CCC(=O)N/N=C/c1ccc[nH]1 | 4.44 µM |
| NC(Cc1ccc(C(F)(F)F)cc1)c1csc(NC(=O)Nc2ccccc2Cc2ccccc2)n1 (centres undefined) | 12.7 µM |
| O=C(c1cccc(S(=O)(=O)NCc2ccccc2)c1)N1CCN(c2ccccc2)CC1 | 17.6 µM |
| C[C@@H]1CN([C@H](C)CO)S(=O)(=O)c2ccc(C#CC(C)(C)O)cc2O[C@H]1CN(C)Cc1ccc(-c2ccccc2)cc1 | 3.05 µM |
| COc1cc(-c2noc(C)c2C#Cc2nccn2C)cc(OC)c1OC | 13.1 µM |
| Cc1ccccc1NC(=O)C(=Cc1ccc(C(=O)O)cc1)C(=O)Nc1ccccc1C | 6.67 µM |
| C[C@@H]1CN([C@@H](C)CO)C(=O)c2cccc(N(C)C)c2O[C@@H]1CN(C)Cc1ccc(C(=O)Nc2ccccc2N)cc1 | 21.1 µM |
| Nc1nc2cc3c(cc2cc1C(=O)NCCc1c[nH]c2ccccc12)OCO3 | 13.7 µM |
| C[C@@H]1CN([C@@H](C)CO)C(=O)Cc2cc(NS(=O)(=O)c3cccs3)ccc2O[C@H]1CN(C)Cc1ccc(Cl)c(Cl)c1 | 12.3 µM |
| CN=c1scc(-c2ccccc2F)n1/N=C/c1ccc(O)c(O)c1O | 16.1 µM |
| c1ccc(Nc2nnc(-c3ccc4c(c3)OCO4)o2)cc1 | 12 µM |

| SMILES | AC35 |
| --- | --- |
| COc1ccc(CN(C)c2ncnc3sccc23)c(OC)c1OC | 16.2 µM |
| CN(C)c1ccc2c(c1)[C@@H]1C[C@@H](CC(=O)NCc3ccc(Oc4ccccc4)cc3)O[C@H](CO)[C@@H]1O2 | 14.3 µM |
| CCCc1cc(=O)oc2c3c(c4c(c12)OC(C)(C)C=C4)OC(C)C(C)C3O (centres undefined) | 22.6 µM |
| CCc1nc(N)nc(N)c1-c1ccc(Cl)cc1 | 6.12 µM |
| Cc1cc2c(C(C)C)c(O)c(O)c(C=O)c2c(O)c1-c1c(C)cc2c(C(C)C)c(O)c(O)c(C=O)c2c1O | 5.02 µM |
| CN1c2ccc(-c3ccc(C#N)cc3)cc2[C@H]2[C@H](CCN2S(=O)(=O)c2cccc(F)c2)[C@@H]1CO | 5.53 µM |
| O=C1/C(=C\c2ccccc2)CN(C(=O)CCN2CCCCC2)C/C1=C/c1ccccc1 | 4.22 µM |
| BrC(=C\c1ccccc1)/C=N/n1cnnc1 | 14.5 µM |
| C[C@]12CC[C@H](O)C[C@H]1CC[C@@H]1C2CC[C@]2(C)[C@@H](C3=CC(=O)OC3)[C@@H](O)C[C@]12O (some centres undefined) | 9.35 µM |
| COC1C(C)OC(OC2CC(C)(O)Cc3cc4c(c(O)c32)C(=O)c2c(O)cc3c(c2C4=O)OC2OC3(C)C(O)C(N(C)C)C2O)C(OC)C1(C)OC (centres undefined) | 0.169 µM |
| O=C(Nc1ccc(Br)cc1)c1ccc(F)c(S(=O)(=O)N2CCN(c3ccccn3)CC2)c1 | 18.2 µM |
| COc1cccc(O)c1CN1CCC(C(=O)Nc2ccc(-c3cccc(C)c3)cc2)CC1 | 20.7 µM |
| COc1cccc(OC)c1C(=O)Nc1cc(C)nn1-c1nc2ccccc2[nH]1 | 18.2 µM |
| Cn1ccc2cc(-c3ccc4ncnc(NCc5cccs5)c4c3)ccc21 | 5.67 µM |
| CC(C)(C)[S@](=O)N1Cc2cc(C(=O)NCC(F)(F)F)nc(-c3cccc(-c4cccc(F)c4)c3)c2[C@@H]1CCO | 16.5 µM |
| CC(C)(C)c1ccc(Oc2ccc(N)cn2)cc1 | 4.73 µM |
| CCNC(=O)c1cc2c(c(-c3cccc(-c4cccc(OC)c4)c3)n1)[C@H](CCO)N([S@@](=O)C(C)(C)C)C2 | 7.43 µM |
| Cc1[nH]c(=S)sc1Cc1ccc(Cl)c(Cl)c1 | 0.898 µM |
| O=C1NC(=O)N(Cc2ccco2)C(=O)/C1=C/C=C/c1ccco1 | 12.5 µM |
| Cc1ccc(/C=N/Nc2ccc3ccccc3n2)o1 | 18.4 µM |
| CC(C)CC#Cc1ccc([C@@H]2[C@@H](CO)N3CCCCN(S(=O)(=O)c4ccc(F)cc4)C[C@H]23)cc1 | 13.2 µM |
| COc1ccc(-c2cc(CNc3nc(NC(C)C)nc4cc(-c5ccccc5)sc34)on2)cc1 | 12.1 µM |
| C=C1C(=O)[C@@]23[C@H](O)C[C@@H]4C(C)(C)CC[C@H](O)[C@@]4(C)[C@@H]2CC[C@@H]1[C@H]3O | 9.15 µM |

| SMILES | AC35 |
| --- | --- |
| O=C(N/N=C/c1ccc[nH]1)c1cc(-c2ccc(Cl)cc2)nc2ccccc12 | 15.2 µM |
| C[C@@H]1O[C@@H](O[C@@H]2C=C3CC[C@@H]4C(CC[C@]5(C)[C@@H](c6ccc(=O)oc6)CC[C@]45O)[C@@]3(C)CC2)[C@H](O)[C@H](O)[C@H]1O (some centres undefined) | 0.0374 µM |
| CCc1cccc2c(C(=O)CN3C(=O)NC4(CCCCC4)C3=O)c[nH]c12 | 4.29 µM |
| CN=c1scc(-c2cccs2)n1/N=C/c1ccccc1O | 21.7 µM |
| C[C@H]1CCCCO[C@H](CN(C)Cc2ccc(C(F)(F)F)cc2)[C@@H](C)CN([C@@H](C)CO)C(=O)c2cc(NC(=O)Nc3ccccc3)ccc2O1 | 12.4 µM |
| OCC1OC(n2ccc3c2ncn2ncnc32)C(O)C1O (centres undefined) | 3.83 µM |
| COc1ccccc1NC(=O)N1CCCCN2[C@H](CO)[C@H](c3ccc(-c4cccc(C)c4)cc3)[C@H]2C1 | 10.9 µM |
| C[C@]12CC[C@H]3[C@@H](CC[C@]4(O)C[C@@H](O)CC[C@]34C=O)[C@@]1(O)CC[C@@H]2C1=CC(=O)OC1 | 2.24 µM |
| COc1cc2c(cc1OC)C(C)N(C(=O)c1cc(Cl)nc(Cl)c1)CC2 (centres undefined) | 11.9 µM |
| COc1ccc(-c2nc3c(s2)CCc2onc(-c4ccc(OC)cc4)c2-3)cc1 | 13.3 µM |
| COc1ccc(C2c3cc4c(cc3OC(NNC(N)=O)C2C)OCO4)cc1 (centres undefined) | 12 µM |
| C[C@@H]1CCCCO[C@H](CN(C)Cc2ccc(C(=O)Nc3ccccc3N)cc2)[C@@H](C)CN([C@H](C)CO)C(=O)c2cc(NS(=O)(=O)c3ccc(Cl)cc3)ccc2O1 | 16.2 µM |
| COc1ccc(C2=Nn3c(nnc3-c3ccccc3F)SC2)cc1OC1CCOC1 (centres undefined) | 4.93 µM |
| CN1c2ccc(-c3ccc(C#N)cc3)cc2[C@H]2[C@H](CCN2S(=O)(=O)c2cccc(F)c2)[C@H]1CO | 3.77 µM |
| C[C@H](CO)N1C[C@H](C)[C@H](CN(C)Cc2ccc(Oc3ccccc3)cc2)Oc2ccc(NC(=O)CCCCCC(=O)Nc3ccccc3N)cc2CC1=O | 11.5 µM |
| Cc1nc(N)nc(N)c1/C=C/C(C)(C)c1ccc(Cl)cc1 | < 0.011 µM |
| COc1cccc(CN2CCC2(C)C(=O)Nc2cccc3cccnc23)c1F (centres undefined) | 14.5 µM |
| Cc1ccccc1S(=O)(=O)N1CC[C@@H]2[C@@H](CO)Nc3ccc(-c4ccc(C#N)cc4)cc3[C@@H]21 | 4.8 µM |
| CCN1C/C(=C/c2ccc(N3CCOCC3)cc2)C(=O)/C(=C/c2ccc(N3CCOCC3)cc2)C1 | 5.92 µM |
| O=C(Nc1ccc2c(c1)OCO2)N1C[C@@H]2N[C@H](C1)C2c1ccc(C=Cc2ccccc2)cc1 (some centres undefined) | 12.8 µM |
| COc1cc2oc3cc(C#Cc4ccc(N)cc4)ccc3c(=O)c2cc1OC | 6.86 µM |
| C/C(=N\NC(=O)c1n[nH]c2c1CCC2)c1cccs1 | 20.2 µM |
| O=c1ccc2[n+]([O-])c3ccc(O)cc3oc-2c1 | 9.82 µM |

| SMILES | AC35 |
| --- | --- |
| CCN1/C(=C/C=C/c2oc3ccc(-c4ccccc4)cc3[n+]2CC)Oc2ccc(-c3ccccc3)cc21 | 2.39 µM |
| C[C@@H]1CN([C@H](C)CO)C(=O)c2cccc(N(C)C)c2O[C@@H]1CN(C)Cc1ccc(C(=O)Nc2ccccc2N)cc1 | 16.4 µM |
| Oc1cccc(-c2nnc(-c3cccc(O)c3)nn2)c1 | 21.3 µM |
| O=C1c2ccccc2C(=O)N1CCCCNc1ccccc1 | 5.25 µM |
| O=C(Nc1ccccc1F)N1CCCCN2[C@H](CO)[C@H](c3ccc(/C=C/c4ccccc4)cc3)[C@H]2C1 | 10.6 µM |
| O=c1c2ccccc2nc(/C=C/c2cc(Br)ccc2O)n1CCCO | 13.8 µM |
| Cc1cccc(CN2C(=O)/C(=C\c3ccc(C(=O)NCCCN4CCN(C)CC4)cc3)Oc3ccccc32)c1 | 12.9 µM |
| CCCCCCCCCCCCCCCCCCNc1ccn(C2OC(COP(=O)(O)OCC3OC(n4cc(F)c(=O)[nH]c4=O)CC3O)C(O)C2O)c(=O)n1 (centres undefined) | 2.77 µM |
| COc1ccc(C2=Nn3c(nnc3-c3ccccc3OC)SC2)cc1OCC1CC1 | 6.68 µM |
| COc1cc2c(cc1NC(=O)CN(C)Cc1ccc(OC)c(OC)c1)oc1ccccc12 | 14.5 µM |
| C[C@@H]1CN([C@@H](C)CO)C(=O)c2cc(NC(=O)c3ccccc3)ccc2O[C@@H](C)CCCCO[C@H]1CN(C)C(=O)Nc1cccc2ccccc12 | 0.679 µM |
| COc1ccccc1-c1ccc(OCCCN2CCC(C(O)(c3ccccc3)c3ccccc3)CC2)cc1 | 13.7 µM |
| C(=Cc1cnc2ccccc2n1)c1ccc2c(c1)OCO2 | 15.2 µM |
| CN1C2CCC1/C(=C/c1ccccn1)C(=O)/C2=C\c1ccccn1 | 1.43 µM |
| C[C@H]1CN([C@@H](C)CO)S(=O)(=O)c2ccc(C#CC(C)(C)O)cc2O[C@@H]1CN(C)Cc1ccc(-c2ccccc2)cc1 | 0.414 µM |
| Cc1ccc(S(=O)(=O)Nc2ccc3c(c2)C(=O)N([C@@H](C)CO)C[C@H](C)[C@@H](CN(C)Cc2ccc(C(F)(F)F)cc2)OCCCC[C@@H](C)O3)cc1 | 11.8 µM |
| COC(=O)c1ccccc1-c1c2ccc(=N)cc-2oc2cc(N)ccc12 | 8.14 µM |
| COc1ccc(NC(=O)N2CCCCN3[C@H](CO)[C@H](c4ccc(C#CCC(C)C)cc4)[C@H]3C2)cc1 | 12.2 µM |
| Nc1sc(-c2ccccc2)cc1-c1n[nH]c(=S)n1C1CCCCC1 | 4.99 µM |
| C(=N\Nc1nc2ccccc2s1)/c1ccccn1 | 3.07 µM |
